Data: US4001248A, “N-cycloalkylmethyl decahydroisoquinolines” (Eli Lilly and Company, priority 1974, dated 1977)
Structures can show the parent of a compound that is named as a salt. Where two headings read alike, the source gives them in different places.

Experiments:
[1] = test system: writhing in mice induced by the intraperitoneal injection of acetic acid; assay: mouse-writhing test (inhibition of writhing induced by intraperitoneal acetic acid); type: in vivo; conditions: for ED50: Mus musculus, read-out: Median inhibiting dose (I.D.50)
Description: In the Table, column 1 gives the name of the compund; column 2, the dosage in mg./kg. of mouse weight; column 3, the route of administration of the drug ("S.C." is subcutaneous and "or" is oral); and column 4, the percent inhibition found at the particular dose level. […] Median inhibiting doses (I.D.50) are also included in the Table.

rat tail jerk = rat tail jerk assay (increase in reaction time over control); type: in vivo
Description: The compounds of this invention are also active in the rat tail jerk assay, another standard pharmacologic test for analgesic activity of the opiate-type. Such activity is manifested as an increase in the reaction time of the animal in removing (jerking) its tail from a nearby heat stimulus (a resistance wire) after drug administration compared to control time (no drug administered). Table 2 which follows gives the increased reaction times over control times produced by the compounds of this invention when administered subcutaneously. In Tables 2 and 3, column 1 gives the name of the compound; column 2, the dose; column 3, time of observation after administration of the drug; column 4, the increase in reaction time above control in seconds; and column 5, the level of significance of the results ("p" value). […] All drugs were administered as aqueous solutions. More than one value for a given dose level indicates multiple determinations. The results are not averaged.

[2] = prior art; cited from earlier work
morphine = assay: modified rat tail jerk assay, antagonism of morphine; type: in vivo, rats
Experimental: The ability of the compounds of this invention to antagonize the action of morphine, an opiate, is shown by the following modification of the aforementioned rat tail jerk assay: The standard assay procedure is used with the exception that a 7 amps. current is used instead of a 6 amps. current in the hot wire to decrease the measurable agonist effects of the antagonist. The drugs under test are then administered to groups of rats at different dose levels at different times prior to test, with a 5 mg./kg. dose of morphine invariably being administered 10 minutes prior to test. Positive evidence of antagonism is a decreased reaction time over that to be expected from the morphine. […] Among the compounds of this invention, those in which R in Structure I is cyclopropylmethyl are the preferred antagonists, showing activity in the above test procedure. […] In a series of determinations, it was ascertained that the minimum subcutaneous dose necessary to reduce the analgesic effects of a 5 mg./kg. subcutaneous dose of morphine was in the range 2.5-5.0 mg./kg. and the minimum oral dose, 5-10 mg./kg.

[3] = 20 mg./kg. S.C., reading at 0.5 hours
[4] = 20 mg./kg. oral, reading at 0.5 hours
[5] = 100 mg./kg. S.C., reading at 0.5 hours
[6] = 100 mg./kg. oral, reading at 0.5 hours

Oc1cccc([C@]23CCCC[C@@H]2CN(CC2CCC2)CC3)c1 (relative stereo) [Trans-dl-1-cyclobutylmethyl-3a-(m-hydroxyphenyl)-1,2,3,3a,4,5,6,7,7a,8-decahydroisoquinoline maleate]
% Inhibition ([1]; 1 mg./kg. S.C., reading at 0.5 hours): 46% | % Inhibition ([1]; 2 mg./kg. S.C., reading at 0.5 hours): 96% | % Inhibition [1, 3]: 100% | % Inhibition [1, 4]: 36% | % Inhibition [1, 5]: 100% | % Inhibition [1, 6]: 100% | Increase in Reaction Time Over Control (rat tail jerk; oral, 10 mg./kg., 10 min): .43 s | Increase in Reaction Time Over Control (rat tail jerk; oral, 10 mg./kg., 30 min): .63 s | Increase in Reaction Time Over Control (rat tail jerk; oral, 10 mg./kg., 60 min): .21 s | Increase in Reaction Time Over Control (rat tail jerk; oral, 25 mg./kg., 30 min): 1.71 s | Increase in Reaction Time Over Control (rat tail jerk; oral, 25 mg./kg., 60 min): 1.04 s | Increase in Reaction Time Over Control (rat tail jerk; oral, 50 mg./kg., 30 min): 12.42 s | Increase in Reaction Time Over Control (rat tail jerk; subcutaneous, 0.25 mg./kg., 30 min): .71 s | Increase in Reaction Time Over Control (rat tail jerk; subcutaneous, 0.5 mg./kg., 30 min): .21 s | Increase in Reaction Time Over Control (rat tail jerk; subcutaneous, 1 mg./kg., 10 min): .46 s | Increase in Reaction Time Over Control (rat tail jerk; subcutaneous, 1 mg./kg., 30 min): 1.63 s | Increase in Reaction Time Over Control (rat tail jerk; subcutaneous, 1 mg./kg., 60 min): .17 s | Increase in Reaction Time Over Control (rat tail jerk; subcutaneous, 2 mg./kg., 10 min): 2.17 s | Increase in Reaction Time Over Control (rat tail jerk; subcutaneous, 2 mg./kg., 30 min): 2.50 s | Increase in Reaction Time Over Control (rat tail jerk; subcutaneous, 2 mg./kg., 60 min): .96 s | Increase in Reaction Time Over Control (rat tail jerk; subcutaneous, 10 mg./kg., 10 min): 17.88 s | Increase in Reaction Time Over Control (rat tail jerk; subcutaneous, 10 mg./kg., 30 min): 23.04 s | Increase in Reaction Time Over Control (rat tail jerk; subcutaneous, 10 mg./kg., 60 min): 22.13 s

CC1C2Cc3ccc(O)cc3C1(C)CCN2CCc1ccccc1 (stereo not shown) [phenazocine]
dependance (addiction) liability [2]: retain a certain degree of opiate dependance liability | opiate antagonist / agonist properties [2]: both antagonists and agonists

CC(=O)Oc1ccc2c3c1O[C@H]1[C@@H](OC(C)=O)C=C[C@H]4[C@@H](C2)N(C)CC[C@@]341 [heroin]
analgesic activity [2]: powerful agonist | dependance (addiction) liability [2]: extremely high addiction potential

COc1ccc2c3c1O[C@H]1[C@@H](O)C=C[C@H]4[C@@H](C2)N(C)CC[C@@]341 [codeine]
analgesic activity [2]: relatively mild analgesic agonist | dependance (addiction) liability [2]: slight dependance (addiction) liability

COc1cccc([C@]23CCCC[C@@H]2CN(CC2CC2)CC3)c1 (relative stereo) [Trans-dl-1-cyclopropylmethyl-3a-(m-methoxyphenyl)-1,2,3,3a,4.5,6,7,7a,8-decahydroisoquinoline]
antagonism of morphine (morphine; dose not stated): found to antagonize morphine

Oc1cccc([C@]23CCCC[C@@H]2CN(CC2CC2)CC3)c1 (stereo in doubt) [Trans-dl-1-cyclopropylmethyl-3a-(m-hydroxyphenyl)-1,2,3,3a,4,5,6,7,7a,8-decahydroisoquinoline]
% Inhibition ([1]; 2 mg./kg. S.C., reading at 0.25 hours): 43% | % Inhibition ([1]; 5 mg./kg. S.C., reading at 0.25 hours): 70% | ED50 ([1]; sc, S.C., readings of this compound at 0.25 hours): 2 to 5 mg/kg | antagonism of morphine analgesia (morphine; 50 mg./kg. oral, 30 minutes prior to test, morphine 5 mg./kg. 10 minutes prior to test): reduces the analgesic response to 5 mg./kg. of morphine

C=CCN1CC[C@]23c4c5ccc(OC)c4O[C@H]2[C@@H](O)C=C[C@H]3[C@H]1C5 [N-allylnorcodeine]
opiate antagonist / agonist properties [2]: opiate antagonist

COc1cccc([C@]23CCCC[C@@H]2CN(CC2CC2)CC3)c1 (relative stereo) [Trans-dl-1-cyclopropylmethyl-3a-(m-methoxyphenyl)-1,2,3,3a,4,5,6,7,7a,8-decahydroisoquinoline maleate]
% Inhibition ([1]; 10 mg./kg. S.C., reading at 0.5 hours): 20% | % Inhibition [1, 3]: 64% | % Inhibition ([1]; 20 mg./kg. oral, reading at 0.25 hours): 5% | % Inhibition [1, 4]: 13% | % Inhibition ([1]; 50 mg./kg. oral, reading at 0.25 hours): 79% | % Inhibition ([1]; 50 mg./kg. oral, reading at 0.5 hours): 69% | % Inhibition [1, 5]: 100% | % Inhibition ([1]; 100 mg./kg. oral, reading at 0.25 hours): 89% | % Inhibition [1, 6]: 87% | ED50 ([1]; sc, S.C.): 10 to 20 mg/kg | ED50 ([1]; oral): 20 to 50 mg/kg | Increase in Reaction Time Over Control (rat tail jerk; oral, 20 mg./kg., 30 min): 1.10 s | Increase in Reaction Time Over Control (rat tail jerk; oral, 20 mg./kg., 120 min): .20 s | Increase in Reaction Time Over Control (rat tail jerk; oral, 80 mg./kg., 30 min): 8.05 s | Increase in Reaction Time Over Control (rat tail jerk; oral, 80 mg./kg., 120 min): 1.19 s | Increase in Reaction Time Over Control (rat tail jerk; subcutaneous, 80 mg./kg., 30 min): 1.75 s | Increase in Reaction Time Over Control (rat tail jerk; subcutaneous, 80 mg./kg., 120 min): 1.05 s

CC(C)=CCN1CCC2(C)c3cc(O)ccc3CC1C2C (stereo not shown) [pentazocine]
dependance (addiction) liability [2]: retain a certain degree of opiate dependance liability | opiate antagonist / agonist properties [2]: both antagonists and agonists

C=CCN1CC[C@]23c4c5ccc(O)c4O[C@H]2[C@@H](O)C=C[C@H]3[C@H]1C5 [nalorphine, N-allylnormorphine]
opiate antagonist / agonist properties [2]: highly specific ability to reverse the depressant effects of morphine
